Legend:
Type in all cases: cell-based
Enterococcus faecium 180 = assay: MIC, standard broth micro-dilution assay, EF 180
Method: (§1) The antibacterial efficacy of the present compounds is illustrated by Table III. The minimal inhibitory concentrations (MICs) were determined using a standard broth micro-dilution assay.

[1] = test system: Staphylococcus aureus X778; assay: MIC, standard broth micro-dilution assay, SA X778
Method: as §1

[2] = test system: Enterococcus gallinarum 245; assay: MIC, standard broth micro-dilution assay, EG 245
Method: as §1

[3] = test system: Staphylococcus aureus SA1199A; assay: MIC, standard broth micro-dilution assay, SA 1199A
Method: as §1

[4] = test system: Staphylococcus haemolyticus 105; assay: MIC, standard broth micro-dilution assay, SH 105
Method: as §1

[5] = test system: Staphylococcus aureus 447; assay: MIC, standard broth micro-dilution assay, SA 447
Method: as §1

[6] = test system: Sensitive Enterococcus faecium and faecalis; assay: MIC, standard broth micro-dilution assay, Sensitive; conditions: geometric mean of 4-6 isolates
Method: as §1

[7] = test system: Staphylococcus haemolyticus 415; assay: MIC, standard broth micro-dilution assay, SH 415
Method: as §1

[8] = test system: Staphylococcus epidermidis 270; assay: MIC, standard broth micro-dilution assay, SE 270
Method: as §1

[9] = test system: Enterococcus faecalis 276; assay: MIC, standard broth micro-dilution assay, EF 276
Method: as §1

[10] = test system: Staphylococcus aureus 446; assay: MIC, standard broth micro-dilution assay, SA 446
Method: as §1

[11] = test system: Staphylococcus aureus 491; assay: MIC, standard broth micro-dilution assay, SA 491
Method: as §1

[12] = test system: Staphylococcus aureus S13E
Method: as §1

[13] = test system: Staphylococcus aureus SA1199; assay: MIC, standard broth micro-dilution assay, SA 1199
Method: as §1

[14] = test system: Enterococcus faecalis 2041; assay: MIC, standard broth micro-dilution assay, EF 2041
Method: as §1

[15] = test system: Resistant Enterococcus faecium and faecalis; assay: MIC, standard broth micro-dilution assay, Resistant; conditions: geometric mean of 4-6 isolates
Method: as §1

[16] = test system: Staphylococcus aureus 489; assay: MIC, standard broth micro-dilution assay, SA 489
Method: as §1

[17] = test system: Haemophilus influenzae RD; assay: MIC, standard broth micro-dilution assay, HFRD
Method: as §1

[18] = test system: Staphylococcus aureus X400; assay: MIC, standard broth micro-dilution assay, SA X400
Method: as §1

Escherichia coli EC14 = assay: MIC, standard broth micro-dilution assay, EC 14
Method: as §1

[19] = test system: Enterococcus faecium 180-1; assay: MIC, standard broth micro-dilution assay, EF 180-1
Method: as §1

| SMILES | minimal inhibitory concentration (MIC), EF 180 (Enterococcus faecium 180) | minimal inhibitory concentration (MIC), SA X778 [1] | minimal inhibitory concentration (MIC), EG 245 [2] | minimal inhibitory concentration (MIC), SA 1199A [3] | minimal inhibitory concentration (MIC), SH 105 [4] | minimal inhibitory concentration (MIC), SA 447 [5] | minimal inhibitory concentration (MIC), Sensitive [6] | minimal inhibitory concentration (MIC), SH 415 [7] | minimal inhibitory concentration (MIC), SE 270 [8] | minimal inhibitory concentration (MIC), EF 276 [9] | minimal inhibitory concentration (MIC), SA 446 [10] | minimal inhibitory concentration (MIC), SA 491 [11] | minimal inhibitory concentration (MIC), SA S13E [12] | minimal inhibitory concentration (MIC), SA 1199 [13] | minimal inhibitory concentration (MIC), EF 2041 [14] | minimal inhibitory concentration (MIC), Resistant [15] | minimal inhibitory concentration (MIC), SA 489 [16] | minimal inhibitory concentration (MIC), HFRD [17] | minimal inhibitory concentration (MIC), SA X400 [18] | minimal inhibitory concentration (MIC), EC 14 (Escherichia coli EC14) | further results |
| --- | --- | --- | --- | --- | --- | --- | --- | --- | --- | --- | --- | --- | --- | --- | --- | --- | --- | --- | --- | --- | --- |
| CSCCC(NC(=O)OC(C)(C)C)C(=O)NC1C(=O)NC(CC(N)=O)C(=O)NC2C(=O)NC3C(=O)NC(C(=O)NC(C(=O)O)c4cc(O)cc(O)c4-c4cc3ccc4O)C(OC3CC(C)(N)C(O)C(C)O3)c3ccc(c(Cl)c3)Oc3cc2cc(c3OC2OC(CO)C(O)C(O)C2OC2CC(C)(NCc3ccc(-c4ccccc4)cc3)C(O)C(C)O2)Oc2ccc(cc2Cl)C1O [Example 15, N^1-(N-BOC-D-methionine) derivative of N^DISACC-(p-phenylbenzyl)desleucylA82846B] | 8 | 0.5 | 1 | 0.125 | 1 | 1 | 1.2 | 1 | 0.25 | 0.5 | 1 | 1 | 1 | 2 | 0.25 | 27 | 1 | >64 | 1 | >64 | minimal inhibitory concentration (MIC), EF 180-1 [19]: ≦.06 |
| CCCCCCNC(CC(C)C)C(=O)NC1C(=O)NC(CC(N)=O)C(=O)NC2C(=O)NC3C(=O)NC(C(=O)NC(C(=O)O)c4cc(O)cc(O)c4-c4cc3ccc4O)C(OC3CC(C)(N)C(O)C(C)O3)c3ccc(c(Cl)c3)Oc3cc2cc(c3OC2OC(CO)C(O)C(O)C2OC2CC(C)(NCCCCCC)C(O)C(C)O2)Oc2ccc(cc2Cl)C1O [Example 38, N^1-(N-n-hexyl-D-leucine) derivative of N^DISACC-n-hexyl desleucylA82846B] | 2 | 0.5 | 0.5 | ≦.06 | 1 | 1 | 0.19 | 1 | 1 | 0.25 | 1 | ≦.06 | 0.5 | 1 | ≦.06 | 6.7 | 0.25 | no | 1 | >64 | minimal inhibitory concentration (MIC), EF 180-1 [19]: no growth |
| CC1OC(OC2c3ccc(c(Cl)c3)Oc3cc4cc(c3OC3OC(CO)C(O)C(O)C3OC3CC(C)(NCc5ccc(-c6ccccc6)cc5)C(O)C(C)O3)Oc3ccc(cc3Cl)C(O)C(NC(=O)C(N)CCCCN)C(=O)NC(CC(N)=O)C(=O)NC4C(=O)NC3C(=O)NC2C(=O)NC(C(=O)O)c2cc(O)cc(O)c2-c2cc3ccc2O)CC(C)(N)C1O [Example 31, N^1-L-lysine derivative of N^DISACC-(p-phenylbenzyl)desleucylA82846B] | 1 | 0.5 | 0.5 | 0.25 | 0.5 | 2 | 0.33 | 2 | 0.5 | 2 | 0.5 | 0.5 | 1 | 0.5 | 1 | 5.6 | 2 | >64 | 2 | >64 | minimal inhibitory concentration (MIC), EF 180-1 [19]: 0.25 |
| CC1OC(OC2C(Oc3c4cc5cc3Oc3ccc(cc3Cl)[C@@H](O)[C@@H](NC(=O)CCCCCCCc3ccccc3)C(=O)N[C@@H](CC(N)=O)C(=O)N[C@H]5C(=O)N[C@H]3C(=O)NC(C(=O)N[C@H](C(=O)O)c5cc(O)cc(O)c5-c5cc3ccc5O)[C@H](OC3CC(C)(N)C(O)C(C)O3)c3ccc(c(Cl)c3)O4)OC(CO)C(O)C2O)CC(C)(N)C1O (stereo partly drawn) [Example 2, N^1-(8-phenyl-n-octanoyl)desleucylA82846B] | 8 | ≦.06 | 0.25 | ≦.06 | 1 | ≦.06 | 1.5 | 8 | 0.125 | ≦.06 | ≦.06 | ≦.06 | ≦.06 | 0.125 | ≦.06 | >128 | ≦.06 | no growth | ≦.06 | >64 | minimal inhibitory concentration (MIC), EF 180-1 [19]: ≦.06 |
| CC(C)CC(NCc1ccc(-c2ccccc2)cc1)C(=O)NC1C(=O)NC(CC(N)=O)C(=O)NC2C(=O)NC3C(=O)NC(C(=O)NC(C(=O)O)c4cc(O)cc(O)c4-c4cc3ccc4O)C(OC3CC(C)(N)C(O)C(C)O3)c3ccc(c(Cl)c3)Oc3cc2cc(c3OC2OC(CO)C(O)C(O)C2OC2CC(C)(N)C(O)C(C)O2)Oc2ccc(cc2Cl)C1O [Example 34, N^1-[N-(p-phenylbenzyl)-D-leucine] derivative of desleucylA82846B] | 2 | ≦.06 | ≦.06 | ≦.06 | ≦.06 | 0.125 | 0.44 | 4 | 0.25 | ≦.06 | 0.125 | ≦.06 | ≦.06 | 0.125 | 0.25 | 38 | ≦.06 | 64 | ≦.06 | >64 | minimal inhibitory concentration (MIC), EF 180-1 [19]: ≦.06 |

Source: patent US6670446B1, “N1 modified glycopeptides” (Eli Lilly and Company, priority 1998, dated 2003)
